Measurements: the NIST ThermoML archive (doi:10.1016/j.fluid.2007.06.007)

Test: excess molar enthalpy (molar enthalpy of mixing); xn = mol fraction of the nth substance listed
Conditions: 101 kPa, Liquid, Calvet calorimetry

CCCCn1cc[n+](C)c1.F[P-](F)(F)(F)(F)F [1-butyl-3-methylimidazolium hexafluorophosphate] + CC(C)O
Conditions | excess molar enthalpy [kcal/mol]
288.15 K, x2 = 0.000943 | 0.00213
288.15 K, x2 = 0.001871 | 0.00426
288.15 K, x2 = 0.002806 | 0.00637
288.15 K, x2 = 0.003745 | 0.00844
288.15 K, x2 = 0.004685 | 0.0106
288.15 K, x2 = 0.00562 | 0.0126
288.15 K, x2 = 0.006556 | 0.0146
288.15 K, x2 = 0.007492 | 0.0167
298.15 K, x2 = 0.000909 | 0.00209
298.15 K, x2 = 0.001826 | 0.00417
298.15 K, x2 = 0.002738 | 0.0062
298.15 K, x2 = 0.003654 | 0.00821
298.15 K, x2 = 0.004571 | 0.0102
298.15 K, x2 = 0.005484 | 0.0123
298.15 K, x2 = 0.006398 | 0.0143
298.15 K, x2 = 0.007311 | 0.0163
308.15 K, x2 = 0.000919 | 0.00219
308.15 K, x2 = 0.001837 | 0.00421
308.15 K, x2 = 0.002753 | 0.00609
308.15 K, x2 = 0.003667 | 0.00793
308.15 K, x2 = 0.004579 | 0.00975
308.15 K, x2 = 0.00549 | 0.0115
308.15 K, x2 = 0.006399 | 0.0132
308.15 K, x2 = 0.007307 | 0.0149
318.15 K, x2 = 0.000994 | 0.00241
318.15 K, x2 = 0.00201 | 0.00473
318.15 K, x2 = 0.003012 | 0.00688
318.15 K, x2 = 0.004011 | 0.00907
318.15 K, x2 = 0.005009 | 0.0111
318.15 K, x2 = 0.006005 | 0.0133
318.15 K, x2 = 0.006999 | 0.0154
318.15 K, x2 = 0.007991 | 0.0172

CCCCn1cc[n+](C)c1.F[P-](F)(F)(F)(F)F [1-butyl-3-methylimidazolium hexafluorophosphate] + CCCCO
Conditions | excess molar enthalpy [kcal/mol]
288.15 K, x2 = 0.000787 | 0.00199
288.15 K, x2 = 0.001572 | 0.00391
288.15 K, x2 = 0.002356 | 0.00586
288.15 K, x2 = 0.003139 | 0.00774
288.15 K, x2 = 0.003921 | 0.00965
288.15 K, x2 = 0.004701 | 0.0115
288.15 K, x2 = 0.00548 | 0.0134
288.15 K, x2 = 0.006258 | 0.0153
298.15 K, x2 = 0.000761 | 0.00205
298.15 K, x2 = 0.00152 | 0.00402
298.15 K, x2 = 0.002279 | 0.00604
298.15 K, x2 = 0.003036 | 0.00798
298.15 K, x2 = 0.003792 | 0.00989
298.15 K, x2 = 0.004547 | 0.0117
298.15 K, x2 = 0.005301 | 0.0136
298.15 K, x2 = 0.006053 | 0.0154
308.15 K, x2 = 0.000768 | 0.00202
308.15 K, x2 = 0.001541 | 0.00387
308.15 K, x2 = 0.002312 | 0.00562
308.15 K, x2 = 0.003086 | 0.00739
308.15 K, x2 = 0.003861 | 0.0092
308.15 K, x2 = 0.004632 | 0.011
308.15 K, x2 = 0.005405 | 0.0129
308.15 K, x2 = 0.006177 | 0.0147
318.15 K, x2 = 0.000821 | 0.00228
318.15 K, x2 = 0.001647 | 0.00451
318.15 K, x2 = 0.00247 | 0.00669
318.15 K, x2 = 0.003297 | 0.00863
318.15 K, x2 = 0.004125 | 0.0107
318.15 K, x2 = 0.004949 | 0.0128
318.15 K, x2 = 0.005774 | 0.0148
318.15 K, x2 = 0.006599 | 0.0167
328.15 K, x2 = 0.000874 | 0.00273
328.15 K, x2 = 0.001747 | 0.00529
328.15 K, x2 = 0.002618 | 0.00766
328.15 K, x2 = 0.003488 | 0.0101
328.15 K, x2 = 0.004357 | 0.0126
328.15 K, x2 = 0.005223 | 0.015
328.15 K, x2 = 0.006089 | 0.0174
328.15 K, x2 = 0.006952 | 0.0198

CCCCn1cc[n+](C)c1.F[P-](F)(F)(F)(F)F [1-butyl-3-methylimidazolium hexafluorophosphate] + CCCO
Conditions | excess molar enthalpy [kcal/mol]
288.15 K, x2 = 0.000953 | 0.00219
288.15 K, x2 = 0.001891 | 0.00413
288.15 K, x2 = 0.002836 | 0.00617
288.15 K, x2 = 0.003785 | 0.00824
288.15 K, x2 = 0.004734 | 0.0102
288.15 K, x2 = 0.005679 | 0.0123
288.15 K, x2 = 0.006625 | 0.0142
288.15 K, x2 = 0.007571 | 0.0162
298.15 K, x2 = 0.000901 | 0.0021
298.15 K, x2 = 0.001808 | 0.00414
298.15 K, x2 = 0.002711 | 0.00615
298.15 K, x2 = 0.003619 | 0.00808
298.15 K, x2 = 0.004527 | 0.00997
298.15 K, x2 = 0.005431 | 0.0118
298.15 K, x2 = 0.006336 | 0.0136
298.15 K, x2 = 0.007241 | 0.0155
308.15 K, x2 = 0.000957 | 0.00225
308.15 K, x2 = 0.001911 | 0.00429
308.15 K, x2 = 0.002864 | 0.00631
308.15 K, x2 = 0.003815 | 0.00832
308.15 K, x2 = 0.004765 | 0.0103
308.15 K, x2 = 0.005712 | 0.0123
308.15 K, x2 = 0.006658 | 0.0142
308.15 K, x2 = 0.007602 | 0.0162
318.15 K, x2 = 0.001129 | 0.00278
318.15 K, x2 = 0.002265 | 0.00556
318.15 K, x2 = 0.003396 | 0.00829
318.15 K, x2 = 0.004532 | 0.0109
318.15 K, x2 = 0.005668 | 0.0136
318.15 K, x2 = 0.006798 | 0.0163
318.15 K, x2 = 0.007929 | 0.019
318.15 K, x2 = 0.009059 | 0.0215

CCCCn1cc[n+](C)c1.F[P-](F)(F)(F)(F)F [1-butyl-3-methylimidazolium hexafluorophosphate] + CCO
Conditions | excess molar enthalpy [kcal/mol]
288.15 K, x2 = 0.001144 | 0.00208
288.15 K, x2 = 0.002285 | 0.00415
288.15 K, x2 = 0.003423 | 0.00629
288.15 K, x2 = 0.004559 | 0.00822
288.15 K, x2 = 0.005692 | 0.0104
288.15 K, x2 = 0.006823 | 0.0126
288.15 K, x2 = 0.007951 | 0.0147
288.15 K, x2 = 0.009076 | 0.0168
298.15 K, x2 = 0.001112 | 0.00206
298.15 K, x2 = 0.002231 | 0.00395
298.15 K, x2 = 0.003346 | 0.00578
298.15 K, x2 = 0.004465 | 0.00775
298.15 K, x2 = 0.005584 | 0.00937
298.15 K, x2 = 0.006698 | 0.0112
298.15 K, x2 = 0.007812 | 0.0132
298.15 K, x2 = 0.008925 | 0.015
308.15 K, x2 = 0.00114 | 0.00243
308.15 K, x2 = 0.002261 | 0.00429
308.15 K, x2 = 0.00339 | 0.00632
308.15 K, x2 = 0.004524 | 0.00838
308.15 K, x2 = 0.005658 | 0.0101
308.15 K, x2 = 0.006787 | 0.0119
308.15 K, x2 = 0.007915 | 0.0139
308.15 K, x2 = 0.009044 | 0.0158
318.15 K, x2 = 0.001144 | 0.00253
318.15 K, x2 = 0.002294 | 0.00499
318.15 K, x2 = 0.00344 | 0.00687
318.15 K, x2 = 0.004591 | 0.00876
318.15 K, x2 = 0.005741 | 0.011
318.15 K, x2 = 0.006886 | 0.0133
318.15 K, x2 = 0.008031 | 0.0153
318.15 K, x2 = 0.009176 | 0.0174

CCO [ethanol] + O
298.15 K
Conditions | excess molar enthalpy [kcal/mol]
x1 = 0.000102 | -0.000249
x1 = 0.000206 | -0.000497
x1 = 0.000308 | -0.000746
x1 = 0.000412 | -0.000992
x1 = 0.000516 | -0.00124
x1 = 0.000619 | -0.00148
x1 = 0.000723 | -0.00173
x1 = 0.000827 | -0.00197
x1 = 0.000931 | -0.00222
x1 = 0.001034 | -0.00246
x1 = 0.001138 | -0.00271
x1 = 0.001241 | -0.00295
x1 = 0.001345 | -0.00319
x1 = 0.001448 | -0.00343
x1 = 0.001551 | -0.00367
x2 = 0.001021 | -0.000507
x2 = 0.00205 | -0.00101
x2 = 0.003074 | -0.00151
x2 = 0.004102 | -0.002
x2 = 0.00513 | -0.00248
x2 = 0.006155 | -0.00296
x2 = 0.007179 | -0.00343
x2 = 0.008203 | -0.0039
x2 = 0.009225 | -0.00437
x2 = 0.01024 | -0.00484
x2 = 0.01125 | -0.00529
x2 = 0.01226 | -0.00575
x2 = 0.01328 | -0.00619
x2 = 0.01428 | -0.00664
x2 = 0.01529 | -0.00708

CCCCCCC [heptane] + CCO
298.15 K
Conditions | excess molar enthalpy [kcal/mol]
x1 = 0.00013 | 0.0001
x1 = 0.000261 | 0.000201
x1 = 0.000392 | 0.000304
x1 = 0.000524 | 0.000402
x1 = 0.000655 | 0.00049
x1 = 0.000787 | 0.000588
x1 = 0.000919 | 0.000679
x1 = 0.001051 | 0.000767
x1 = 0.001183 | 0.000865
x1 = 0.001314 | 0.000954
x1 = 0.001445 | 0.00105
x1 = 0.001577 | 0.00114
x2 = 0.000794 | 0.00457
x2 = 0.001594 | 0.0088
x2 = 0.002391 | 0.0129
x2 = 0.003191 | 0.0168
x2 = 0.003992 | 0.0205
x2 = 0.00479 | 0.0239
x2 = 0.005589 | 0.027
x2 = 0.006387 | 0.0299
x2 = 0.007185 | 0.0325
x2 = 0.007976 | 0.0349
x2 = 0.008768 | 0.0371
x2 = 0.009558 | 0.0391
